The record followed here is PubChem BioAssay (NCI).

Test systems include A549 NSCLC; HS 578T breast; LOX IMVI melanoma; MALME-3M melanoma; MDA-N; OVCAR-3 ovarian; OVCAR-5 ovarian; SK-MEL-2 melanoma; SW-620 colon; TK-10 renal.
What all share (test): NCI-60 cell line screen, 48 h

Each structure is given as a SMILES string.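 Tested at 5 concentrations; 48 h exposure; 96-well plates; endpoints linearly interpolated, else capped at highest concentration. Here, GI50 denotes the concentration required for 50% inhibition of growth. TGI: concentration producing complete growth inhibition.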

With `Cc1nc2c(Cl)cc(Cl)cc2c(Cl)c1CCCl`, the TGI in the assay with A549 NSCLC, in the assay on HS 578T breast, in the assay with LOX IMVI melanoma, in the assay with MALME-3M melanoma, in the assay with MDA-N and in the assay on OVCAR-3 ovarian was > 100 µM each time. In addition, the TGI with OVCAR-5 ovarian, with SK-MEL-2 melanoma, in the assay on SW-620 colon and in the assay with TK-10 renal was > 100 µM throughout.
With `CCCCC1(N=[N+]=[N-])C(=O)C2C=CC=C3c4ccccc4N(C1=O)C32` (stereo not drawn), the TGI in the assay on A549 NSCLC was > 31.6 µM; with HS 578T breast it was 26 µM; in the assay with LOX IMVI melanoma, > 31.6 µM; with MALME-3M melanoma, > 31.6 µM; in the assay with MDA-N, > 31.6 µM; in the assay on OVCAR-3 ovarian, > 31.6 µM. The TGI in the assay with OVCAR-5 ovarian was > 31.6 µM; with SK-MEL-2 melanoma, 21.5 µM; in the assay on SW-620 colon, > 31.6 µM; in the assay with TK-10 renal, > 31.6 µM.
For the compound `COc1cccc2c1-c1c(OC)cccc1SS2`, the TGI in the assay with A549 NSCLC was 33.5 µM; in the assay on HS 578T breast, > 100 µM; with LOX IMVI melanoma, 23.5 µM; in the assay on MALME-3M melanoma, 52 µM; with MDA-N it was 8.15 µM; in the assay with OVCAR-3 ovarian, 48.7 µM. Moreover, the TGI worked out at 40.9 µM in the assay on OVCAR-5 ovarian, 46.4 µM in the assay on SK-MEL-2 melanoma, 47.2 µM with SW-620 colon and 51.1 µM in the assay on TK-10 renal.
Take `CC1(C)O[C@H]2OC(CO)C(OS(C)(=O)=O)[C@H]2O1` (stereo partly drawn): the TGI in the assay with A549 NSCLC, with HS 578T breast, with LOX IMVI melanoma, in the assay with MALME-3M melanoma, in the assay with MDA-N and in the assay on OVCAR-3 ovarian was > 100 µM each time. Besides, the TGI in the assay with OVCAR-5 ovarian, in the assay on SK-MEL-2 melanoma, in the assay on SW-620 colon and with TK-10 renal was > 100 µM each time.
In the case of `COc1ccc(N2C(N)=C(C#N)C(C#N)(C#N)C2c2cccc([N+](=O)[O-])c2)cc1` (stereo not drawn), the TGI with A549 NSCLC turned out to be 34.2 µM; in the assay with HS 578T breast, 54.6 µM; in the assay with LOX IMVI melanoma, 27.6 µM; with MALME-3M melanoma it was 16 µM; with MDA-N, 31.5 µM; in the assay with OVCAR-3 ovarian, 30.1 µM. The TGI in the assay on OVCAR-5 ovarian was 34.5 µM; with SK-MEL-2 melanoma, 33.2 µM; in the assay with SW-620 colon, 26 µM; with TK-10 renal, 30.9 µM.
Take `O=[N+]([O-])c1ccc2nc(/C=C(\O)c3ccccc3)c(/C=C(\O)c3ccccc3)nc2c1`: the TGI in the assay with A549 NSCLC was > 58.5 µM; in the assay on HS 578T breast it was 48.6 µM; in the assay with LOX IMVI melanoma, 21.3 µM; in the assay with MALME-3M melanoma, > 100 µM; in the assay with MDA-N, > 100 µM; in the assay with OVCAR-3 ovarian it was 31.3 µM. Also, the TGI in the assay with OVCAR-5 ovarian is > 100 µM; in the assay on SK-MEL-2 melanoma, > 82.2 µM; in the assay with SW-620 colon, 61.4 µM; with TK-10 renal, 63 µM. For the same compound, the results for the GI50 in the assay with HS 578T breast, in the assay with LOX IMVI melanoma and with SW-620 colon were 6.83 µM, 7.18 µM and 6.11 µM, respectively.
`CN(C)CCCNc1cnc2cc3ccccc3cc2n1`: the TGI in the assay with A549 NSCLC was > 100 µM; in the assay on HS 578T breast, > 100 µM; in the assay on LOX IMVI melanoma, 35.7 µM; in the assay with MALME-3M melanoma, 44.5 µM; in the assay on MDA-N, > 100 µM; in the assay on OVCAR-3 ovarian it was > 100 µM. Further, the TGI is 81.9 µM in the assay on OVCAR-5 ovarian, 44.8 µM in the assay on SK-MEL-2 melanoma, > 100 µM in the assay with SW-620 colon and 78.2 µM in the assay with TK-10 renal.
Regarding `CCCCCCCCCCCCCCCCCCOc1ccc(/C=C/C2=[N+](CCCl)CCO2)cc1`, the TGI in the assay on A549 NSCLC, in the assay with HS 578T breast, with LOX IMVI melanoma, in the assay on MALME-3M melanoma, with MDA-N and in the assay on OVCAR-3 ovarian was > 100 µM each time. In addition, the TGI in the assay with OVCAR-5 ovarian, with SK-MEL-2 melanoma, with SW-620 colon and in the assay on TK-10 renal was > 100 µM in each case.
As to `COc1cc(O)c2c(=O)c(OC)c(-c3ccc4c(c3)OCO4)oc2c1OC`, the TGI in the assay with A549 NSCLC, in the assay on HS 578T breast, with LOX IMVI melanoma, with MALME-3M melanoma, in the assay on MDA-N and in the assay with OVCAR-3 ovarian was > 50 µM throughout. The TGI in the assay with OVCAR-5 ovarian, in the assay with SK-MEL-2 melanoma, in the assay with SW-620 colon and in the assay with TK-10 renal was > 50 µM in each case.
Regarding `CNC(=O)c1ccccc1[S+]1c2cccc3cccc(c23)C(=O)N1C` (stereo not drawn), the TGI in the assay on A549 NSCLC, in the assay on HS 578T breast, with LOX IMVI melanoma, in the assay on MALME-3M melanoma, in the assay on MDA-N and in the assay with OVCAR-3 ovarian was > 100 µM each time. In addition, the TGI in the assay with OVCAR-5 ovarian, with SK-MEL-2 melanoma, in the assay on SW-620 colon and with TK-10 renal was > 100 µM each time.
Take `O=C(Cn1c(=O)oc2ccc(C(=O)c3ccccc3Cl)cc21)c1ccc([N+](=O)[O-])cc1`: the TGI is > 100 µM in the assay on A549 NSCLC; > 100 µM in the assay on HS 578T breast; 30.9 µM with LOX IMVI melanoma; 69.5 µM in the assay with MALME-3M melanoma; 39.1 µM with MDA-N; 59.4 µM in the assay with OVCAR-3 ovarian. For the same compound, the TGI in the assay on OVCAR-5 ovarian is > 100 µM; in the assay with SK-MEL-2 melanoma it was 41.6 µM; with SW-620 colon, > 100 µM; in the assay with TK-10 renal it was > 100 µM.
`COP(=O)(OC)c1ccc(NCc2cc(O)ccc2O)cc1`: the TGI in the assay with A549 NSCLC is > 100 µM; with HS 578T breast it was > 63.8 µM; in the assay on LOX IMVI melanoma, > 75.4 µM; in the assay on MALME-3M melanoma it was 39.1 µM; in the assay with MDA-N, > 63.2 µM; in the assay with OVCAR-3 ovarian, 16.5 µM. The TGI is > 60.1 µM with OVCAR-5 ovarian, > 87.8 µM with SK-MEL-2 melanoma, > 100 µM with SW-620 colon and 53.9 µM in the assay on TK-10 renal.
As for `CN(C)CCNC(=O)c1cccc2[nH]c(-c3ccncc3)nc12`, the TGI is > 44.9 µM with A549 NSCLC; 29.6 µM in the assay on HS 578T breast; 1.81 µM with LOX IMVI melanoma; 3.75 µM in the assay on MALME-3M melanoma; 3.27 µM in the assay with MDA-N; > 46.9 µM in the assay with OVCAR-3 ovarian. Moreover, the TGI in the assay with OVCAR-5 ovarian came to 34.1 µM; in the assay on SK-MEL-2 melanoma, 11.5 µM; with SW-620 colon it was 13 µM; in the assay on TK-10 renal, 16.9 µM.
